Results taken from patent publication US9139587B2, “N1-pyrazolospiroketone acetyl-CoA carboxylase inhibitors” (Pfizer Inc., priority 2009, dated 2015).

Columns and labels:
[1] = molecular target: T1, recombinant human ACC1 (rhACC1) (Homo sapiens, UniProt Q13085, DEL44-44); test: recombinant hACC1 Transcreener assay (direct inhibition of ACC1 activity); assay type: biochemical; details: Transcreener ADP detection FP assay, 50 μM ATP, 30 μM acetyl-CoA, 120 min at 25° C.
T1 construct: recombinant baculovirus containing full length human ACC1 cDNA; made in house; host or cells: SF9 insect cells (baculovirus)
Method in brief: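 Full-length human ACC1 from baculovirus-infected SF9 cells, dephosphorylated with lambda phosphatase. Reaction in 50 mM HEPES pH 7.2 with 30 μM acetyl-CoA, 50 μM ATP, 10 mM KHCO3, 120 min at 25° C; ADP detected by Transcreener fluorescence polarisation.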

[2] = molecular target: T2, recombinant human ACC2 (rhACC2) (Homo sapiens, UniProt O00763, V2141I); test: recombinant hACC2 Transcreener assay (direct inhibition of ACC2 activity); assay type: biochemical; details: Transcreener ADP detection FP assay, 50 μM ATP, 30 μM acetyl-CoA, 50 min at 25° C.
T2 construct: a full length Cytomax clone of ACC2 was purchased from Cambridge Bioscience Limited; made in house; host or cells: CHO cells (tetracycline-induced, pcDNA5 FRT TO-TOPO)
Method in brief: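 Full-length human ACC2 was expressed in CHO cells and avidin-purified. ADP formation was measured by Transcreener FP in 50 mM HEPES pH 7.2 with 30 μM acetyl-CoA, 50 μM ATP, 8 mM KHCO3 and 5 mM citrate. Reactions ran 50 min at 25 °C with 1% DMSO, then 1 h with stop/detect reagent.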

SMILES	IC50 [1] [µM]	IC50 [2] [µM]
CC(C)n1ncc2c1C(=O)CC1(CCN(C(=O)c3cc4cnccc4[nH]3)CC1)C2 [Example 11A-56]	1.01	0.359
CC(C)(C)n1ncc2c1C(=O)CC1(CCN(C(=O)c3ccc(N4CCOCC4)cn3)CC1)C2 [Example 11A-57]	9.23	2.33
CC(C)(C)n1ncc2c1C(=O)CC1(CCN(C(=O)c3cnc4cn[nH]c4c3)CC1)C2 [Example 11A-58]	0.131	0.0736
CC(C)n1ncc2c1C(=O)CC1(CCN(C(=O)c3cc(-c4cccnc4)[nH]n3)CC1)C2 [Example 11A-62]	0.338	0.112
CC(C)(C)n1ncc2c1C(=O)CC1(CCN(C(=O)c3cccc(-c4ncc[nH]4)c3)CC1)C2 [Example 11A-64]	0.105	0.0244
CC(C)(C)n1ncc2c1C(=O)CC1(CCN(C(=O)c3ccn4ccnc4c3)CC1)C2 [Example 11A-67]	0.203	0.139
CC(C)(C)n1ncc2c1C(=O)CC1(CCN(C(=O)c3cc4cccn4cn3)CC1)C2 [Example 11A-69]	0.58	0.288
CC(C)(C)n1ncc2c1C(=O)CC1(CCN(C(=O)c3ccc4cn[nH]c4c3)CC1)C2 [Example 11A-74]	0.0237	0.0168
CC(C)(C)n1ncc2c1C(=O)CC1(CCN(C(=O)c3cc4cccnc4[nH]3)CC1)C2 [Example 12A-1, 1-tert-butyl-1′-(1H-pyrrolo[2,3-b]pyridine-2-carbonyl)-4,6-dihydrospiro[indazole-5,4′-piperidin]-7(1H)-one]	0.0395	0.0673

More lines, in order of falling IC50 [1], values ahead:

IC50 [1] [µM]	IC50 [2] [µM]	SMILES
8.72	2.55	CC(C)n1ncc2c1C(=O)CC1(CCN(C(=O)c3ccc(-n4ccnc4)cn3)CC1)C2 [Example 11A-63]
4.08	1.39	CC(C)n1ncc2c1C(=O)CC1(CCN(C(=O)c3c[nH]c4c(cnn4C)c3=O)CC1)C2 [Example 11A-66]
2.57	1.35	CC(C)(C)n1ncc2c1C(=O)CC1(CCN(C(=O)c3ccc4cnccc4n3)CC1)C2 [Example 11A-61]
1.86	1.04	Cn1ncc2c(=O)c(C(=O)N3CCC4(CC3)CC(=O)c3c(cnn3C(C)(C)C)C4)c[nH]c21 [Example 11A-70]
1.08	0.388	CC(C)n1ncc2c1C(=O)CC1(CCN(C(=O)c3ccc4[nH]cnc4n3)CC1)C2 [Example 11A-65]
0.867	0.153	CC(C)(C)n1ncc2c1C(=O)CC1(CCN(C(=O)c3ccc(-n4cncn4)cc3)CC1)C2 [Example 11A-72]
0.825	0.285	CC(C)(C)n1ncc2c1C(=O)CC1(CCN(C(=O)c3ccc4[nH]cnc4n3)CC1)C2 [Example 11A-68]
0.404	0.171	CC(C)n1ncc2c1C(=O)CC1(CCN(C(=O)c3ccn4cncc4c3)CC1)C2 [Example 11A-60]
0.264	0.316	CC(C)(C)n1nc(Br)c2c1C(=O)CC1(CCN(C(=O)c3cc(Br)c4[nH]c(=O)[nH]c4c3)CC1)C2 [Example 13A-1, 3-bromo-1′-(7-bromo-2-oxo-2,3-dihydro-1H-benzo[d]imidazole-5-carbonyl)-1-tert-butyl-4,6-dihydrospiro[indazole-5,4′-piperidin]-7(1H)-one]
0.0868	0.0801	CC(C)(C)n1ncc2c1C(=O)CC1(CCN(C(=O)c3ccc(-n4cccn4)nc3)CC1)C2 [Example 11A-59]
0.0374	0.0374	CC(C)(C)n1ncc2c1C(=O)CC1(CCN(C(=O)c3cc4ccncc4[nH]3)CC1)C2 [Example 11A-73]
